What all share (type): in vivo, SD rats
For data set [1], the system named is pulmonary arterial hypertension (PAH) models. The data set is described as follows: PAH model, blood flow and blood pressure measurement. The note with it: MCT + Sildenafil 25 mpk, orally every day, 3 weeks. The source says: (§1) To induce PAH in 7-week-old SD rats (Oriental Bio), 60 mpk of MCT (monocrotaline) were subcutaneously injected. Thereafter, the rats were divided into four groups (tested with five animals in each group), and were administrated with 1mpk of Mock human IgG (Thermo Fisher Scientific, negative control), 1mpk of N3 IgG antibody, 10mpk of N3 IgG antibody, and 25 mpk of sildenafil (positive control) for 3 weeks. All antibodies were i.v. injected twice a week and sildenafil was orally administered every day.
After three weeks, the rats were anesthetized with isoflurane, and blood flow and pressure were measured using an MPVS Cardiovascular Pressure and Volume system (model name: MPVS Ultra, manufacturer: Millar Instruments). The right ventricular end-systolic pressure (RVESP), right ventricular end-diastolic pressure, left ventricular end-systolic pressure, left ventricular end-diastolic pressure were measured using an exclusive catheter (Mikro-Tip rat pressure catheter, manufacturer: Millar Instruments). The cardiac output was measured using a perivascular blood flow probe (Transonic Flow probes, manufacturer: […]), and experimental method thereof was performed by the same method as disclosed in the following literature: Pacher P, Nagayama T, Mukhopadhyay P, Batkai S, Kass DA. Measurement of cardiac function using pressure-volume conductance catheter technique in mice and rats. Nat Protoc 2008; 3 (9): 1422-34.

A short description of data set [2]: PAH model, body weight and abnormal signs. The note with it: MCT + Sildenafil.
Text: as §1

Data set [3] concerns pulmonary arterial hypertension (PAH) models. The experiment in a line: PAH model, echocardiography. The note with it: MCT PAH rats.
Text: as §1

Turning to `CCCc1nn(C)c2c(=O)[nH]c(-c3cc(S(=O)(=O)N4CCN(C)CC4)ccc3OCC)nc12` [Sildenafil, sildenafil], in data set [1], the CO stood at 49.6 ± 17.7 mL/min, the LVEDP is reported as 3.6 ± 2.3 mmHg, the LVESP came out at 83.2 ± 4.7 mmHg and the RVEDP came to 2.6 ± 1.3 mmHg. Also, the RVESP in data set [1] was 48.4 ± 9.6 mmHg. Moreover, in data set [2], the “body weight, Absolute change” value is on record as 104.1 ± 26.4 g and the “body weight, Relative change” value is listed as 49.8 ± 10.5%. The “D-shaped left ventricle indicating pressure overload in the right ventricle” value in data set [3] is reported as “three animals”.

The values are drawn from US12679903B2, “Antibody for specifically binding to lysyl-tRNA synthetase N-terminal domain exposed to extracellular membrane” (Zymedi Co., Ltd., priority 2018, dated 2026).
